# Test results taken from patent US20160115200A1, “New Use for JNK Inhibitor Molecules for Treatment of Various Diseases” (XIGEN INFLAMMATION LTD., priority 2013, published 2016).
# Square brackets hold non-standard residues; d marks the D form. Peptide text beside a SMILES is read from it.
# Experiments:
# [1] = system: Primary Rat Whole Blood Cells; experiment: Cytokine release in rat whole blood stimulated with LPS or PMA+ionomycin; type: cell-based; conditions: 10 μM inhibitor, PMA+ionomycin 25/500, 50/750, 50/1000 ng/mL, 4 h
# Protocol: Given are the results for the control, 1 μM of SEQ ID NO: 172, 3 μM of SEQ ID NO: 172, and 10 μM of SEQ ID NO: 172 at different levels of LPS (ng/ml).
# FIG. 17 Dose dependent inhibition of IL-2 release in rat whole blood stimulated with PMA+ionomycin. JNK inhibitor with SEQ ID NO: 172 was added at three different concentrations, namely 1, 3 and 10 μM 1 h before stimulation with PMA+ionomycin. Three doses of activators were added (25/500 ng/mL, 50/750 ng/mL and 50/1000 ng/mL) for 4 h. IL-2 release was assessed in supernatant.
# Whole blood is collected from anesthetized rat or human healthy volunteers using a venipuncture connected to a pre-labeled vacuum tube containing sodium citrate. Tubes are gently mixed by inversion 7-8 times; and are then kept at RT until stimulation. JNK inhibitor of SEQ ID NO: 172 is prepared 6 times concentrated in PBS, and 30 μl/well of mix is added into 96-well plate. Whole blood is diluted by 1:2 in PBS and 120 μl of diluted blood is added in each well where either PBS alone or JNK inhibitor of SEQ ID NO: 172 has been previously added. Whole blood is incubated at 37° C.; 85 rpm (Stuart Orbital incubator SI500) for 60 min. […] Cytokine (IL-6, IL-2, IFNγ and TNFα) were then measured using standard Elisa kits (e.g. from R&D Systems: DuoSet Elisas; or from BD Biosciences: BD Opteia Set Elisa). Results are expressed as pg/ml of supernatant of the measured cytokine. […]
# [2] = system: mouse model of scopolamine-induced dry eye; experiment: Scopolamine-induced dry eye in mice (TBUT, PRTT, histopathology); type: in vivo; conditions: for TBUT mean nadir: TID topical ocular
# Description: The objective of this study was to assess the effects of two different compounds, the all-D-retro-inverso JNK-inhibitor (poly-)peptide of SEQ ID NO: 197 and the JNK inhibitor (poly-)peptide of SEQ ID NO: 172, at three dose levels in a mouse model of scopolamine-induced dry eye.
# The study consisted of a total of 9 groups of female C57BL/6 mice, comprising 8 groups of 12 mice each and an additional group of 4 mice. Bilateral short-term dry eye was induced by a combination of scopolamine hydrobromide (Sigma-Aldrich Corp., St. Louis, Mo.) injection (subcutaneous (SC), four times daily, 0.5 mg/dose, Days 0-21) and by exposing mice to the drying environment of constant air draft. […] Mice of Group 9 were maintained as un-induced, (no dry eye) untreated controls.
# During the in-life (treatment) period, clinical observations were recorded once daily; slit-lamp examination (SLE) with corneal fluorescein staining, tear break-up time test (TBUT), and phenol red thread test (PRTT) were performed three times per week. Necropsies were performed on Day 22; eyes, eye lids, conjunctivae, and lacrimal glands were collected from both eyes of each animal. Tissues from the right eyes (oculus dexter, OD) were fixed and then evaluated microscopically. Tissues from the left eyes (oculus sinister; OS) were flash-frozen in liquid nitrogen and stored frozen at −80° C. for possible subsequent analyses.
# The TBUT test was conducted three times weekly by measuring the time elapsed in seconds between a complete blink after application of fluorescein to the cornea and the appearance of the first random dry spot in the tear film. […] At least ninety seconds later, corneal epithelial damage was graded using a slit-lamp with a cobalt blue filter after another drop of 0.1% fluorescein was reapplied to the cornea; the cornea then was scored per the Draize ocular scale.
# Tear production was measured three times a week in both eyes using PRTT test strips (Zone-Quick; Menicon, Nagoya, Japan). Prior to the first treatment of the day, a thread was applied to the lateral canthus of the conjunctival fornix of each eye for 30 seconds under slit-lamp biomicroscopy. Tear migration up the tread (i.e., the length of the wetted cotton thread) was measured using a millimeter scale.
# At necropsy on Day 22, both eyes from each animal, including the globes, lacrimal glands, eyelids, and conjunctivae, were excised. The right eye and associated tissues were fixed by overnight submersion in modified Davidson's solution followed by transfer to 10% neutral buffered formalin (NBF). The fixed tissues of the right eye were dehydrated, embedded in paraffin, sectioned at 3 to 5-μm thicknesses, and slide-mounted tissues were stained with hematoxylin and eosin (H & E). Stained slides were evaluated via light microscopy. Detailed and complete histopathologic assessment was conducted on all parts of the eye, with at least two section levels being examined histopathologically for each right eye. Special attention was paid to the cornea, epithelia (including goblet cells) of the conjunctiva and cornea, as well as the lacrimal gland. These tissues were scored for injury based upon a 0-4 scale, with 0 being normal, 1 being minimal, 2 being mild, 3 being moderate, and 4 being severe. For each cornea, scores were based on corneal epithelium thickness, and corneal inflammation. Conjunctivae were scored for erosion and inflammation as well as presence or absence of goblet cells.
structure (smiles),measurement,setting,value
"CC(C)C[C@H](NC(=O)[C@H](CC(N)=O)NC(=O)[C@H](CC(C)C)NC(=O)[C@@H](NC(=O)[C@@H](C)NC(=O)[C@@H]1CCCN1C(=O)[C@H](CCCNC(=N)N)NC(=O)[C@@H](CCCCN)NC(=O)[C@@H]1CCCN1C(=O)[C@H](CCCNC(=N)N)NC(=O)[C@@H](CCCNC(=N)N)NC(=O)[C@H](CCCNC(=N)N)NC(=O)[C@H](CCCNC(=N)N)NC(=O)[C@H](CCC(N)=O)NC(=O)[C@@H](CCCNC(=N)N)NC(=O)[C@H](CCCNC(=N)N)NC(=O)[C@H](CCCCN)NC(=O)[C@H](CCCCN)NC(=O)[C@H](N)CCCNC(=N)N)[C@@H](C)O)C(=O)N[C@H](Cc1ccccc1)C(N)=O [SEQ ID NO: 172, rKKRrQRRrRPkRPaTLNLf] (H-[dR]KKR[dR]QRR[dR]RP[dK]RP[dA]TLNL[dF]-NH2)",PMA-iono-induced IL-2 release,[1],efficiently reduce
same,TBUT mean nadir,"[2]; Day 7, high-dose 0.6% (Group 7)",6.7 ± 0.3 s
same,TBUT mean nadir,"[2]; Day 7, low-dose 0.05% (Group 5)",6.6 ± 0.4 s
same,TBUT mean nadir,"[2]; Day 7, mid-dose 0.2% (Group 6)",6.7 ± 0.4 s
same,TBUT mean peak,"[2]; Day 9, high-dose 0.6% (Group 7)",9.9 ± 0.8 s
same,TBUT mean peak,"[2]; Day 9, low-dose 0.05% (Group 5)",8.0 ± 0.4 s
same,TBUT mean peak,"[2]; Day 9, mid-dose 0.2% (Group 6)",10.0 ± 0.7 s
same,"PRTT, aqueous tear production compared with cyclosporine","[2]; Day 21, mid and high-dose (Groups 6 and 7)",therapeutic effects similar to cyclosporine
same,TBUT means compared with vehicle group,"[2]; low, medium and high-dose, Groups 2, 3 and 4",above the vehicle group
same,aqueous tear production (PRTT) compared with vehicle,"[2]; low, mid or high-dose SEQ ID NO: 172",significantly more aqueous tears compared to vehicle-treated animals
same,histological cornea scores compared with cyclosporine group,"[2]; mid and high-dose SEQ ID NO: 172 (Groups 6, 7), high-dose SEQ ID NO: 197 (Group 4)",not significantly different than the cyclosporine group scores
